The source of these data is publication PMC5685716, “Oral 4-(N)-stearoyl gemcitabine nanoparticles inhibit tumor growth in mouse models” (Oncotarget, 2017).

On the set-up of series [1]: method as in PMID 19860433, PMID 26806350. The settings on record: cited from earlier work.
Details of series [2]: method as in PMID 19860433, PMID 17090088. As to conditions: oral, animal (rodent) models; cited from earlier work.
Details of series [3]: method as in PMID 19860433. The settings on record: mouse model, molar equivalent dose, cited from earlier work.
For a further series, the system named is leukemia. As to conditions: oral, rat leukemia model; cited from earlier work.
On the set-up of series [4]: method as in PMID 18473859, PMID 18474674. The settings on record: in water; cited from earlier work.
Series [5] has as its system TC-1 tumors. The series is described as follows: Antitumor activity in mice with pre-established TC-1 tumors. The settings on record: p.o. once daily, GemC18 150 μg/mouse, gemcitabine HCl 85 μg/mouse (molar equivalent). The series is classed as in vivo, C57BL/6 mice. From the text: When TC-1 tumor cells were used, female C57BL/6 mice (18-20 g, 6-8 weeks, n = 5) were subcutaneously (s.c) injected with TC-1 cells (5 × 10^5 cells/mouse) in the right flank on day 0. Mouse hair was carefully trimmed at the injection site one day prior to the injection. Treatment with GemC18-SLNs, GemC18-in-vegetable oil (GemC18-in-oil), GemC18-free SLNs, all in a mannitol solution (5%, w/v), was started on day 11, and mice were orally gavaged daily until the endpoint (i.e. death, tumor size reaching 15 mm, tumor ulceration, body weight loss of more than 20%, or other signs of severe distress and discomfort). As controls, mice were orally gavaged with a mannitol solution (5%) or i.v. injected with the GemC18-SLNs, twice a week until the endpoint. The dose of GemC18 was 250 μg per mouse per dose for the oral route, 500 μg per mouse per dose for i.v. route. Tumor size was measured 2-3 times a week, and tumor volume was calculated as: volume (mm^3) = (length x width^2)/2. Mouse survival time was also recorded. In another study, TC-1 tumor-bearing female C57BL/6 mice were orally gavaged with GemC18-SLNs, GemC18-in-oil, vegetable oil alone (oil), or gemcitabine HCl (GemHCl, as a control), once daily. The dose of GemC18 was 150 μg per mouse per dose, and dose of GemHCl was 85 μg per mouse per dose (i.e. molar equivalent to the dose of GemC18).

A further series has as its system LLC tumors. Description: Antitumor activity in mice with LLC lung tumors. In kind it is in vivo, C57BL/6J mice. As to conditions: p.o. once in every two days, GemC18 250 μg/mouse, GemHCl 141.5 μg/mouse (molar equivalent). On the procedure: LLC tumors were established in female C57BL/6J mice (6-8 week) from the Beijing Vital River Laboratory Animal Technology Co., Ltd. (Beijing, China). Mice were s.c. injected with LLC cells (5 × 10^5) in their back on day 0. On day 11, mice were randomized into groups (n = 8) and were treated by oral gavage with GemC18-SLNs, GemC18-free SLNs, GemC18 alone in a Tween 20 solution, GemHCl (molar equivalent of GemC18), all in a mannitol solution (5%, w/v). Control mice were orally gavaged with a mannitol solution (5%). Mice were treated once in every two days for 3 weeks. The dose of GemC18 was 250 μg/mouse, 141.5 μg/mouse for GemHCl (i.e. molar equivalent to 250 μg of GemC18). GemC18 was dissolved into 1% (v/v) Tween 20 in a 5% (w/v) mannitol solution to a proper concentration. Mouse health was monitored daily, and weight recorded. Tumor size was measured every other day. […] Microscopic images taken at 200 x magnification were analyzed using an Image-Pro Plus software (Media Cybernetics, Inc., Shanghai, China) to determine the percent of cells that are Ki67 positive, the microvessel density (MVD) in tumor tissues, and the optical density of the anti-caspase 3 staining.

Another series deals with LLC cells. Details: method as in earlier work. As to conditions: 3 × 10^3 cells, 48 h incubation; cited from earlier work.
The next series has as its system TC-1 tumor cells. On the set-up: method as in PMID 23570983. The settings on record: 3 × 10^3 cells, 48 h of incubation; cited from earlier work.
Series [6] deals with TC-1 tumors. On the set-up: method as in PMID 21371545, PMID 22471294. As to conditions: GemC18 dissolved in a Tween 20 solution; cited from earlier work.
A further series deals with B16F10 tumors. Details: method as in PMID 21371545, PMID 22471294. The settings on record: GemC18 dissolved in a Tween 20 solution; cited from earlier work.
The next series relates to HT-29 tumor cells. Details: method as in PMID 17352232. The settings on record: peritumoral injection, GemC18 in a Tween 80 solution; cited from earlier work.
On the set-up of series [7]: method as in PMID 18519780. The settings on record: human subjects, patients with advanced or metastatic cancer, estimated; cited from earlier work.

≈ marks a conversion by molar mass, not a printed value. Where “and” joins values, the source holds several entries; their conditions need not be identical. Identical values can stand only once. Counter-ions that a name gives are not always drawn. Like-named read-outs stand apart in the source and are kept apart here.

In the case of `CCCC(CCC)C(=O)Nc1ccn([C@@H]2O[C@H](CO)[C@@H](O)C2(F)F)c(=O)n1` [LY2334737], in series [1], the solubility in water was more than 2000 µg/mL. The “antitumor activity vs molar equivalent dose of gemcitabine” value in series [2] was “stronger antitumor activity”. In addition, the “systemic exposure (AUC) vs oral gemcitabine” value in series [3] (listed as LY2334734) is recorded as “higher systemic exposure of gemcitabine than oral free gemcitabine”; in series [3], “significantly higher”.

For `CC(C)=CCC/C(C)=C/CC/C(C)=C/CC/C=C(\C)CC/C=C(\C)CCC(=O)Nc1ccn([C@@H]2O[C@H](CO)[C@@H](O)C2(F)F)c(=O)n1` [SQdFdC], the “antitumor activity vs molar equivalent dose of gemcitabine” value in [2] is listed as “stronger antitumor activity”. Further, the antitumor activity result in the series with leukemia was “potent antitumor activity”. The “size of self-assembled nanoparticles” value in series [4] was 100-300 nm.

Broadly, the IC50 is the midpoint of a concentration-inhibition curve. For `Nc1ccn([C@@H]2O[C@H](CO)[C@@H](O)C2(F)F)c(=O)n1` [gemcitabine HCl], in the series with TC-1 tumors [5], the TC-1 tumor growth result is listed as “significantly less effective than the GemC18-SLNs”. Also, the LLC tumor growth result in the series on LLC tumors is on record as “also inhibited LLC tumor growth, but they were significantly less effective than oral GemC18-SLNs”. Besides, in the series with LLC cells, the IC50 was 0.0234 ± 0.0067 µM.

Consider `CCCCCCCCCCCCCCCCCC(=O)Nc1ccn([C@@H]2OC(CO)C(O)C2(F)F)c(=O)n1` (stereo partly shown) [GemC18, 4-(N)-stearoyl gemcitabine], for which the LLC tumor growth entry with LLC tumors is “also inhibited LLC tumor growth, but they were significantly less effective than oral GemC18-SLNs”. The solubility in water in series [1] was 1.38 ± 1.60 µg/mL (≈ 2.61 µM). Also, the IC50 is 0.0185 ± 0.0017 µM in the series with TC-1 tumor cells and 0.13 ± 0.0311 µM with LLC cells. Further, the antitumor activity result with TC-1 tumors [6] and with B16F10 tumors was “did not show any significant antitumor activity” throughout. For the same molecule, the tumor growth entry in the series with HT-29 tumor cells is reported as “did not significantly affect the tumor growth”.

On to `Nc1ccn([C@@H]2O[C@H](CO)[C@@H](O)C2(F)F)c(=O)n1` [gemcitabine, 2′,2′-difluorodeoxycytidine], for which, in the series with TC-1 tumor cells, the IC50 was 0.0106 ± 0.0011 µM. In addition, the oral bioavailability in series [7] was 10% and ~ 10%.
